Test results reported in ChEMBL document CHEMBL6114992, “Design, synthesis, biological evaluation, and mechanism of action of new pyrazines as anticancer agents in vitro and in vivo” (Bioorg Med Chem, 2025).
Activity calls are given as the source filed them. No cut-off for these calls is given here.

How the values were obtained:
THP-1 = assay: Antiproliferative activity against human THP-1 cells assessed as inhibition of cell growth incubated for 72 hrs by MTT assay; format: functional, cell-based; details: THP-1, 72 h
KG-1 = assay: Antiproliferative activity against human KG-1 cells assessed as inhibition of cell growth incubated for 72 hrs by MTT assay; format: functional, cell-based; details: KG-1, 72 h
U-937 [1] = assay: Antiproliferative activity against human U-937 cells assessed as inhibition of cell growth incubated for 72 hrs by MTT assay; format: functional, cell-based; details: U-937, 72 h
SK-OV-3 = assay: Antiproliferative activity against human SK-OV-3 cells assessed as inhibition of cell growth incubated for 72 hrs by MTT assay; format: functional, cell-based; details: SK-OV-3, 72 h
[2] = Antiproliferative activity against human SK-OV-3/Taxol cells assessed as inhibition of cell growth incubated for 72 hrs by MTT assay; format: functional, cell-based; details: SK-OV-3, 72 h
U-937 [3] = assay: Induction of apoptosis in human U-937 cells assessed as viable cells at 0.5 uM incubated for 48 hrs by Annexin V-FITC/PI staining based flow cytometry (reference value: 93.30 %); format: functional; details: read-out: Activity
U-937 [4] = assay: Induction of apoptosis in human U-937 cells assessed as early apoptotic cells at 0.5 uM incubated for 48 hrs by Annexin V-FITC/PI staining based flow cytometry (reference value: 2.72 %); format: functional
U-937 [5] = assay: Induction of apoptosis in human U-937 cells assessed as late apoptotic cells at 0.5 uM incubated for 48 hrs by Annexin V-FITC/PI staining based flow cytometry (reference value: 1.96 %); format: functional
U-937 [6] = assay: Induction of apoptosis in human U-937 cells assessed as necrotic cells at 0.5 uM incubated for 48 hrs by Annexin V-FITC/PI staining based flow cytometry (reference value: 2.03 %); format: functional
U-937 [7] = assay: Induction of apoptosis in human U-937 cells assessed as viable cells at 1 uM incubated for 48 hrs by Annexin V-FITC/PI staining based flow cytometry (reference value: 93.30 %); format: functional; details: read-out: Activity
U-937 [8] = assay: Induction of apoptosis in human U-937 cells assessed as early apoptotic cells at 1 uM incubated for 48 hrs by Annexin V-FITC/PI staining based flow cytometry (reference value: 2.72 %); format: functional
U-937 [9] = assay: Induction of apoptosis in human U-937 cells assessed as late apoptotic cells at 1 uM incubated for 48 hrs by Annexin V-FITC/PI staining based flow cytometry (reference value: 1.96 %); format: functional
U-937 [10] = assay: Induction of apoptosis in human U-937 cells assessed as necrotic cells at 1 uM incubated for 48 hrs by Annexin V-FITC/PI staining based flow cytometry (reference value: 2.03 %); format: functional
U-937 [11] = assay: Induction of apoptosis in human U-937 cells assessed as viable cells at 2.5 uM incubated for 48 hrs by Annexin V-FITC/PI staining based flow cytometry (reference value: 93.30 %); format: functional; details: read-out: Activity
U-937 [12] = assay: Induction of apoptosis in human U-937 cells assessed as early apoptotic cells at 2.5 uM incubated for 48 hrs by Annexin V-FITC/PI staining based flow cytometry (reference value: 2.72 %); format: functional
U-937 [13] = assay: Induction of apoptosis in human U-937 cells assessed as late apoptotic cells at 2.5 uM incubated for 48 hrs by Annexin V-FITC/PI staining based flow cytometry (reference value: 1.96 %); format: functional
U-937 [14] = assay: Induction of apoptosis in human U-937 cells assessed as necrotic cells at 2.5 uM incubated for 48 hrs by Annexin V-FITC/PI staining based flow cytometry (reference value: 2.03 %); format: functional
U-937 [15] = assay: Induction of apoptosis in human U-937 cells assessed as change in mitochondrial membrane potential at 1 uM incubated for 48 hrs by JC-1 staining based flow cytometry (reference value: 2.20 %); format: functional
U-937 [16] = assay: Induction of apoptosis in human U-937 cells assessed as change in mitochondrial membrane potential at 2.5 uM incubated for 48 hrs by JC-1 staining based flow cytometry (reference value: 2.20 %); format: functional
U-937 [17] = assay: Induction of apoptosis in human U-937 cells assessed as change in mitochondrial membrane potential at 5 uM incubated for 48 hrs by JC-1 staining based flow cytometry (reference value: 2.20 %); format: functional
U-937 [18] = assay: Upregulation of p21 expression in human U-937 cells incubated for 48 hrs by Western blot analysis; format: functional, cell-based
U-937 [19] = assay: Downregulation of Bcl-2 expression in human U-937 cells incubated for 48 hrs by Western blot analysis; format: functional, cell-based
U-937 [20] = assay: Downregulation of Bcl-XL expression in human U-937 cells incubated for 48 hrs by Western blot analysis; format: functional, cell-based; details: dose 1-5 µM
U-937 [21] = assay: Downregulation of XIAP expression in human U-937 cells incubated for 48 hrs by Western blot analysis; format: functional, cell-based
U-937 [22] = assay: Downregulation of YAP1 expression in human U-937 cells incubated for 48 hrs by Western blot analysis; format: functional, cell-based; details: dose 1-5 µM
U-937 [23] = assay: Downregulation of c-Myc expression in human U-937 cells incubated for 48 hrs by Western blot analysis; format: functional, cell-based; details: dose 1-5 µM
[24] = molecular target: Signal transducer and activator of transcription 3 (Homo sapiens) (UniProt P40763); assay: Inhibition of STAT3 phosphorylation in human U-937 cells at 1 to 5 uM incubated for 48 hrs by Western blot analysis; format: cell-based; details: dose 1-5 µM
Sequence of Signal transducer and activator of transcription 3 (Homo sapiens) (P40763 whole entry): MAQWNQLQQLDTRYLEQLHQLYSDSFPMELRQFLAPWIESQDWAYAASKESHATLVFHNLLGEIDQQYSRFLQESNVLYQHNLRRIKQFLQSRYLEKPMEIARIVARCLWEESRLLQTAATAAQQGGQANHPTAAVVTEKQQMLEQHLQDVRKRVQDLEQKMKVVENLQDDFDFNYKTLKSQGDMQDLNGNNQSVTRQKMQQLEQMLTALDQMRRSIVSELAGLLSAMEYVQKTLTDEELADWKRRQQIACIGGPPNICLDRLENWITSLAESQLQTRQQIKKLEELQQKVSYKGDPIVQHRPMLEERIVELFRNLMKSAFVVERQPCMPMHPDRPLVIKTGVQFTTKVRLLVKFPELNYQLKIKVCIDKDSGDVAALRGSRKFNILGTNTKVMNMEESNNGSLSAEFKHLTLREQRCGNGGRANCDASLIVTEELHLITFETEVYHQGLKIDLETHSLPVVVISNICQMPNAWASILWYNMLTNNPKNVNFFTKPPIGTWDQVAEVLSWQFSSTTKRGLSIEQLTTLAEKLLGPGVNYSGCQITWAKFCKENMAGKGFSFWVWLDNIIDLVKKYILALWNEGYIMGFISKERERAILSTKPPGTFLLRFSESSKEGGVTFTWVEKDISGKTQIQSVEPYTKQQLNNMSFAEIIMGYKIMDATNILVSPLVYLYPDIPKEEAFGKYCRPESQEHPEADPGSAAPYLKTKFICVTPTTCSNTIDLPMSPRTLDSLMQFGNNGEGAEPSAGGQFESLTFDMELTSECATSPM

CCc1nccnc1C(=O)/C=C/c1ccc(C#N)cc1
IC50 (THP-1): 0.64 µM | IC50 (KG-1): 3.98 µM | IC50 (U-937 [1]): 0.18 µM | IC50 (SK-OV-3): 4.71 µM | IC50 [2]: 5.39 µM | viability at 0.5 µM (U-937 [3]): 82.9% | Activity (U-937 [4]): 8.17% | Activity (U-937 [5]): 6.11% | Activity (U-937 [6]): 2.84% | viability at 1 µM (U-937 [7]): 80.3% | Activity (U-937 [8]): 10.41% | Activity (U-937 [9]): 6.74% | Activity (U-937 [10]): 2.6% | viability at 2.5 µM (U-937 [11]): 74.2% | Activity (U-937 [12]): 14.57% | Activity (U-937 [13]): 7.46% | Activity (U-937 [14]): 3.82% | Activity (U-937 [15]): 3.69% | Activity (U-937 [16]): 6.16% | Activity (U-937 [17]): 14.12% | Activity (U-937 [18]): Dose-dependent-effect | Activity (U-937 [19]): Dose-dependent-effect | Activity (U-937 [20]): Dose-dependent-effect | Activity (U-937 [21]): Dose-dependent-effect | Activity (U-937 [22]): Dose-dependent-effect | Activity (U-937 [23]): Dose-dependent-effect | inhibition [24]: Active

Cc1nccnc1C(=O)/C=C/c1ccccc1Cl
IC50 (THP-1): 1.76 µM | IC50 (KG-1): 1.26 µM | IC50 (U-937 [1]): 2.36 µM | IC50 (SK-OV-3): 3.08 µM | IC50 [2]: 2.94 µM
